Assay [1] has as its system Stat-1 phosphorylation in anisomycin-stimulated HeLa cells. Kind of assay: Inhibition of substrate phosphorylation, phospho-Stat-1 immunoblot. It counts as cell-based, human. Conditions: 50 μM, 30 min pretreatment. Here is the method:
(§1) Inhibition of substrate phosphorylation: A functional analysis of UM101 to block p38-dependent phosphorylation of MK2 and Stat-1 was performed in HeLa cells. […] Cell extracts prepared in RIPA buffer containing protease and phosphatase inhibitors were resolved by SDS-PAGE, transferred to PVDF membrane, blocked with 5% nonfat dry milk, probed with primary antibodies against phosphorylated MK2 and Stat-1, and total p38α as a loading control. Bands were detected using secondary antibodies conjugated to infrared fluorophores and infrared fluorescence imaging (Odyssey; LICOR).

The target in assay [2] is T1, mutated p38α (Homo sapiens, UniProt Q16539, H107T/K165R/L108F/R49K).
T1 construct: made in house; host or cells: E. coli BL21
T1 sequence (Q16539 whole entry R49K/H107T/L108F/K165R): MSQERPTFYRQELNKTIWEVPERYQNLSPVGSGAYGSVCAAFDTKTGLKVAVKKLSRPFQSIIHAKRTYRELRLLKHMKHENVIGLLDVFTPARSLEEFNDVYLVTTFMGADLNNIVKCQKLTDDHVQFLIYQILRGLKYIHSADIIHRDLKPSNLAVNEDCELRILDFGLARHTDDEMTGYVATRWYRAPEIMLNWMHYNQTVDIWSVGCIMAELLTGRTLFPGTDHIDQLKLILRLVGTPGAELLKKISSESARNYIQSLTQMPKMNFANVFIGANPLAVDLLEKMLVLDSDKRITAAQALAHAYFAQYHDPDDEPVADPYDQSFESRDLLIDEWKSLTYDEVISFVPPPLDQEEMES
Kind of assay: STD-NMR with mutated p38α. The assay is classed as binding. Conditions: 200 μM UM101, 5 μM protein. Here is the method:
(§2) Saturation Transfer Difference Nuclear Magnetic Resonance (STD-NMR): A 40 mM stock solution of UM101 was made in d6-DMSO. STD-NMR samples contained 150 mM NaCl, 50 mM phosphate, pH 7,200 μM UM101, and 5 μM p38 protein in D20. Spectra were recorded on an Agilent DD2 500-MHz spectrometer equipped with a 5-mm inverse HFCN probe head at 300 K. During each transient, the protein was saturated with a series of 58 […]-shaped pulses (50 ms, 1 ms delay between pulses) using the vendor-supplied STD-ES pulse sequence, for a total saturation time of 3 seconds. The on-resonance irradiation of protein was done at 0.5 ppm and off-resonance irradiation at 30 ppm. The vendor-supplied WATERGATE pulse sequence was used to suppress the water signal in the STD spectrum. The on-resonance and off-resonance pulse sequences were subtracted internally. A total of 16,384 transients were collected for each STD experiment with a 1 second delay between acquisitions, 6000 Hz spectral width, and 1.3 second acquisition time.
(§3) Selective binding of UM101 to the CADD-targeted pocket in p38α was confirmed using Saturation Transfer Difference (STD)-NMR. The peaks in the 1D spectrum are labeled according to tentative peak assignments of UM101 in aqueous form, based on assignments of UM101 in 2 mM d6-DMSO, which were obtained from the use of 1D proton and C13 and 2D-HMBC experiments. […]

Assay [3] addresses T2, p38β (Homo sapiens, UniProt Q15759).
T2 construct: HA (N); made in house; host or cells: E. coli BL21
Kind of assay: STD-NMR with p38β. The assay is classed as binding. As to conditions: 200 μM UM101, 5 μM protein. Here is the method:
as §2, §3

Assay [4] deals with HMVECL monolayers. Kind of assay: Endothelial permeability assay (10 kDa dextran flux), TNFα/hyperthermia. It counts as cell-based, human. As to the method: Endothelial permeability assay: Permeability of HMVECL monolayers was assessed by measuring transendothelial flux of 10 kDa dextran conjugated to Cascade blue fluorescent dye for 30 min at 37° C. in Matrigel-coated 3 μm pore size Transwell plates.
The capacity of UM60 and UM101 to stabilize endothelial barriers to macromolecules and neutrophils in TNFα- and hyperthermia-stressed HMVECL monolayers was tested (FIG. 2).

The subject of assay [5] is MK2 phosphorylation in anisomycin-stimulated HeLa cells. Kind of assay: Inhibition of substrate phosphorylation, phospho-MK2 immunoblot. The assay is classed as cell-based, human. As to conditions: 50 μM, 30 min pretreatment. As to the method:
as §1
(A western blot detects proteins with antibodies after separation by electrophoresis.)

T2 sequence (Q15759 whole entry): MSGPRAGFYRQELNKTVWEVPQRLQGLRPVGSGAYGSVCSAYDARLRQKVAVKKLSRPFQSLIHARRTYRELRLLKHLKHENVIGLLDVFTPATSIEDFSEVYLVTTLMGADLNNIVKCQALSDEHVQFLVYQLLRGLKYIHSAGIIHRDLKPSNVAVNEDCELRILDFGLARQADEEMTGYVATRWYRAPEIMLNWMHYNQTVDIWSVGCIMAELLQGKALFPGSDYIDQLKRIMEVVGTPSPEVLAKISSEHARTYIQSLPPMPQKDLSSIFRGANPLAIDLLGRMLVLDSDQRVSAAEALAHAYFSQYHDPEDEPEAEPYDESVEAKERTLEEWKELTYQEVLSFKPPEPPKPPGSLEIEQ

On to `O=C(Nc1ccc(CN2CCS(=O)(=O)CC2)cc1)c1ccc(Cl)cc1` [UM101, 4-chloro-N-{4-[(1,1-dioxo-1lambda˜6˜,4-thiazinan-4-yl)methyl]phenyl}benzamide], for which the “anisomycin-stimulated phosphorylation of Stat-1” value in assay [1] is listed as “reduced”. For the same compound, the “interaction with mutated p38α (STD-NMR)” value in assay [2] is recorded as “much weaker”. Moreover, the “interaction with p38β (STD-NMR)” value in assay [3] is given as “much weaker”. The “reduction of TNFα/hyperthermia-induced permeability increase” value in assay [4] (10 μM) is 74%; in assay [4] (25 μM) it was 89%; in assay [4] (100 μM), above 100%. The “anisomycin-stimulated phosphorylation of MK2” value in assay [5] is reported as “reduced”.

Values taken from patent US11078171B2, “Non-ATP/catalytic site p38 mitogen activated protein kinase inhibitors” (University of Maryland, Baltimore, priority 2018, dated 2021).
